Results published in patent US20240180802A1, “USE OF NEUROSPORENE TO PROTECT THE SKIN FROM THE HARMFUL EFFECTS OF BLUE LIGHT” (DEINOVE, priority 2019, published 2024).

Experiments:
[1] = ABTS radical cation reduction test; type: physicochemical; details: 5 min at ambient temperature, expressed as α-tocopherol equivalent, FIG. 7
Description: The ABTS test is based on the use of colored cationic radicals. In the presence of a molecule having an antioxidant power, the colored cationic radical is reduced and loses its color. Consequently, the antioxidant power of a molecule can be measured by the decoloration of the radical.
A solution was prepared by mixing ABTS (7 mM), potassium persulfate (2.45 mM) and water (qs 5 ml) and incubated for 16 hours at ambient temperature in the dark. Next, a range of eight concentrations of neurosporene, lycopene, α-tocopherol, 9Z-β carotene, zeaxanthin, trolox and D-tocotrienol was dispensed into 96-well microplates before adding the ABTS solution prepared above. The microplates were then incubated at ambient temperature for 5 min, and the coloration was then analyzed at 250 nm using a microplate reader.

[2] = test system: explants of human skin of phototype IV; experiment: Quantification of the melanin in human skin explants irradiated with blue light; details: topical refined plant oil with 12.5 ppm neurosporene and 4 ppm other carotenoids, 5 mg/cm2 daily; blue light 447 nm, 202.6 J/cm2; Fontana-Masson staining; p-value<0.01
Description: Explants of human skin of phototype IV were placed under culture conditions. After 24 h, three conditions were studied: a nontreated control, a topical treatment with refined plant oil alone or a topical treatment with a preparation of refined plant oil containing neurosporene (12.5 ppm of neurosporene and 4 ppm of a mixture of carotenoids, namely phytoene, lycopene, zeta-carotene, phytofluene and gamma-carotene). The products were applied every day (5 mg/cm 2) for 3 days. Each condition was carried out in triplicate.
After 3 days of pretreatment, a blue light stress was applied by irradiation at the wavelength of 447 nm each day for 3 days, corresponding to a dose of 202.6 J/cm^2. After each irradiation, the explants were again and, depending on the conditions, not treated or treated either with plant oil alone or with the plant oil containing neurosporene.
The melanin was then quantified after analysis of images taken with an epifluorescence microscope (Zeiss, Axio Imager Z1, ApoTome, Zen2 software blue edition) and staining according to the Fontana Masson method. The images were then analyzed on ImageJ. The area of melanin staining was standardized by the length of the basal lamina. The experiment was carried out in triplicate for each condition (nontreated, treatment with vegetable oil alone, treatment with vegetable oil enriched in neurosporene).

[3] = test system: HaCaT human keratinocytes; experiment: Detection of ROSs in keratinocytes under irradiation with blue light; type: cell-based; details: 1 h pretreatment, neurosporene 0 to 4 μg/ml or bacterial extract 0 to 15 μg/ml; blue light 460 nm, 150 J/cm2; CellROX deep red; FIGS. 3-4
Description: (§1) HaCaT human keratinocytes were seeded into 96-well microplates in a proportion of 10 000 cells/well in DMEM medium supplemented with 10% of FCS (fetal calf serum) and incubated at 37° C. in 5% CO2 and 95% humidity for 24 hours. After this period of recovery, the cells were pretreated with either 43 μg/ml of α-tocopherol or with an increasing range of neurosporene (from 0 to 4 μg/ml) or with an increasing range of bacterial extract comprising neurosporene (from 0 to 15 μg/ml) for one hour. At the end of the pretreatment, 5 μM of “CellROX deep red” (a label which becomes fluorescent in the presence of reactive oxygen species (ROS)) and Hoechst (10 μg/ml) (which becomes fluorescent when it is bound to the DNA in the nucleus) were added to the medium. Immediately afterwards, the cells were treated either with UVA radiation (20 J/cm 2), or with a blue light (460 nm, 150 J/cm 2). The cells were then washed three times in 1×DPBS buffer and observed under a fluorescence microscope (CellInsight CX7, ThermoFisher). The fluorescence signals were then analyzed using the HCS Studio software (ThermoFisher) in order to quantify the ROSs produced in the cytosol.

[4] = test system: HaCaT human keratinocytes; experiment: Detection of ROSs in keratinocytes under irradiation with UVA radiation; type: cell-based; details: 1 h pretreatment, neurosporene 0 to 4 μg/ml or bacterial extract 0 to 15 μg/ml; UVA 20 J/cm2; CellROX deep red; FIGS. 1-2
Description: as §1

[5] = test system: HaCaT human keratinocytes; experiment: Wound healing test (scratched keratinocyte monolayer); type: cell-based; details: neurosporene 0.12 μg/ml; FCS-free DMEM; FIG. 6
Description: HaCaT human keratinocytes were seeded into 96-well microplates in a proportion of 33 000 cells/well in DMEM medium supplemented with 10% of FCS and incubated at 37° C. in 5% CO2 and 95% humidity for 24 hours. Once confluence was reached, the cells were washed three times in FCS-free DMEM in order to remove from the wells the growth factors present in the complete medium. The keratinocyte monolayers were then scratched using a “WoundMaker” (Essen Biosciences) which makes it possible to injure cell monolayers in 96-well format. The cells were then washed three times with FCS-free DMEM in order to remove the cell debris. After washing, DMEM medium was added to the wells. EGF (Epidermal growth factor, ng/ml) used as positive control for injury filling or neurosporene (0.12 μg/ml) was added to the wells. The wound healing was observed by phase-contrast microscopy using an “Incucyte ZOOM” (Essen Biosciences), which is an automatic microscope maintained in a CO2 incubator. The images were then processed using the associated software.

[6] = test system: HaCaT human keratinocytes; experiment: Assaying of ATP after irradiation with blue light; type: cell-based; details: 24 h pretreatment with dry bacterial extract in DMSO containing 0.05 μg/ml neurosporene; blue light 460 nm, 100 J/cm2; ATP standardized by live cells; FIG. 10
Description: HaCaT human keratinocytes were seeded into 96-well microplates in a proportion of 20 000 cells/well in DMEM supplemented with 10% of fetal calf serum and incubated at 37° C. in 5% CO2 and 95% humidity for 24 hours. After a period of recovery, the cells were pretreated with a dry bacterial extract taken up in DMSO and containing 0.05 μg/ml of neurosporene and a mixture of carotenoids (phytoene, lycopene, zeta-carotene, phytofluene and gamma-carotene), the neurosporene being the major carotenoid of this extract. The cells were incubated at 37° C. in 5% CO2 and 95% humidity for 24 hours. Immediately afterwards, the cells were irradiated with blue light (460 nm, 100 J/cm 2). The cells were then washed three times in 1×PBS buffer and permeabilized with 2% triton at 25° C. for 20 min. The supernatants were then collected in order to quantify the ATP by luminescence (Invitrogen™ ATP Determination Kit, Molecular Probes™). The amount of ATP per well is standardized by the amount of live cells. Each condition was carried out in triplicate.

CC(C)=CCC/C(C)=C/C=C/C(C)=C/C=C/C(C)=C/C=C/C=C(C)/C=C/C=C(\C)CC/C=C(\C)CCC=C(C)C [neurosporene, 7,8-dihydro-ψ,ψ-carotene]
antioxidant power relative to reference molecule α-tocopherol [1]: two times greater | melanin production induced by blue light, change compared to the control exposed without treatment [2]: −25% | antioxidant power against blue light (ROSs produced in the cytosol) [3]: strong antioxidant power | antioxidant power against UVA radiation (ROSs produced in the cytosol) [4]: strong antioxidant power | improvement of wound healing (injury filling by cell confluence) compared to nontreated control [5]: 35% | effect on intracellular ATP reduction induced by blue light [6]: makes it possible to limit the ATP reduction induced by blue light
